Assay results taken from patent US10517889B2, “Modulators of SMAD7 expression” (Ionis Pharmaceuticals, Inc., priority 2017, dated 2019).
Strand notation (5' to 3'): a small letter for the sugar, then the base; units joined by * are phosphorothioate-linked, units joined directly phosphodiester-linked; [ ] holds rarer units or linkages, { } end groups; capitals alone tell only the bases. k = constrained ethyl (cEt); [5mC] = 5-methylcytosine; d = 2'-deoxy (DNA)

Each substance was assayed on human SMAD7 mRNA (assay: Antisense inhibition of human SMAD7 mRNA expression in Hep3B cells by 3-10-3 cEt gapmers, 10,000 nM, electroporation (Example 2)). Conditions: Hep3B cells, electroporation with 10,000 nM antisense oligonucleotide, approximately 24 hours, RTS5062, percent inhibition of SMAD7 mRNA relative to untreated control cells.
Assay type: cell-based
Description: Antisense oligonucleotides were designed to target human SMAD7 mRNA and were tested for their effects on SMAD7 mRNA expression in vitro. The antisense oligonucleotides were tested in a series of experiments that had similar culture conditions, as described below. ION 771576, described in the studies above and which is a 5-10-5 MOE gapmer, was also included in these assays. Cultured Hep3B cells at a density of 20,000 cells per well were transfected using electroporation with 10,000 nM antisense oligonucleotide. After a treatment period of approximately 24 hours, RNA was isolated from the cells and SMAD7 mRNA levels were measured by quantitative real-time PCR. Primer probe set RTS5062 was used to measure human SMAD7 mRNA levels. SMAD7 mRNA levels were adjusted according to total RNA content, as measured by RIBOGREEN®. Results are presented as percent inhibition of SMAD7 mRNA expression, relative to untreated control cells.
The newly designed chimeric antisense oligonucleotides in the Tables below were designed as 3-10-3 cEt gapmers. The gapmers are 16 nucleosides in length, wherein the central gap segment comprises often 2′-deoxynucleosides and is flanked by wing segments on the 5′ direction and the 3′ direction comprising three nucleosides each. Each nucleoside in the 5′ wing segment and each nucleoside in the 3′ wing segment has a cEt sugar modification. The internucleoside linkages throughout each gapmer are phosphorothioate (P═S) linkages. All cytosine residues throughout each gapmer are 5-methylcytosines.
“Start site” indicates the 5′-most nucleoside to which the gapmer is targeted in the human gene sequence. “Stop site” indicates the 3′-most nucleoside to which the gapmer is targeted human gene sequence. […] Some of the oligonucleotides presented were complementary to SMAD7 mRNA sequences RefSeqNo. NM_001190821.1 (designated herein as SEQ ID NO: 3) or RefSeqNo. NM_001190822.1 (designated herein as SEQ ID NO: 4), and are presented in a separate table shown below.

Compared with “799279 (antisense kA*k[5mC]*k[5mC]*dT*dT*dG*dT*d[5mC]*dA*d[5mC]*d[5mC]*d[5mC]*dG*kT*k[5mC]*kT) [compound 799279]”, “799612 (kA*kA*kA*d[5mC]*dA*dG*d[5mC]*dA*d[5mC]*dA*d[5mC]*dA*dG*kG*kG*k[5mC]; antisense) [compound 799612]” is higher in “% Inhibition” value: 48% for the first, 50% for the second.

Compared with “799665 (antisense kG*kA*kT*dG*d[5mC]*d[5mC]*dA*dG*d[5mC]*dA*dA*dG*dG*kA*kT*k[5mC]) [compound 799665]”, “799586 (kG*kA*kG*dG*dA*dG*dG*d[5mC]*dA*d[5mC]*dT*d[5mC]*dA*kG*kG*k[5mC]; antisense) [compound 799586]” is lower in “% Inhibition” value: 57% for the first, 50% for the second.

Same assay, conditions: Hep3B cells, electroporation with 10,000 nM antisense oligonucleotide, approximately 24 hours, SMAD7 mRNA by RT-PCR (RTS5062), relative to untreated control cells

“799485 (antisense kA*kG*k[5mC]*d[5mC]*dA*d[5mC]*dT*d[5mC]*d[5mC]*d[5mC]*d[5mC]*dG*d[5mC]*k[5mC]*kA*k[5mC]) [compound 799485]” and “799256 (antisense k[5mC]*k[5mC]*kA*dA*dA*dA*d[5mC]*dT*d[5mC]*d[5mC]*dA*dA*dA*kG*kG*kT) [compound 799256]” are the same in “% Inhibition” value: 0% for the first, 0% for the second.

First: 830049 (kG*kT*kT*dT*d[5mC]*d[5mC]*dG*dA*dT*dT*dG*dG*d[5mC]*kA*kG*kG; antisense) [compound 830049]
Second: 800062 (antisense k[5mC]*k[5mC]*k[5mC]*d[5mC]*dA*dA*dG*d[5mC]*dT*dG*dG*d[5mC]*d[5mC]*kT*kT*k[5mC]) [compound 800062]
The “% Inhibition” value of the first is higher: 43% for the first, 25% for the second.

Going from “799411 (antisense kT*kG*kG*dA*dG*dA*dA*d[5mC]*dT*dT*dT*dT*d[5mC]*kT*k[5mC]*k[5mC]) [compound 799411]” to “800008 (kG*kA*kA*d[5mC]*dA*dG*dA*d[5mC]*d[5mC]*dA*dG*dA*d[5mC]*k[5mC]*k[5mC]*kT; antisense) [compound 800008]”, the “% Inhibition” value rises from 0% to 40%.

Going from “830154 (antisense kG*kT*kG*d[5mC]*d[5mC]*dT*d[5mC]*dA*dG*d[5mC]*dA*dG*dT*kT*kA*kA) [compound 830154]” to “800028 (k[5mC]*kA*k[5mC]*dA*dG*d[5mC]*d[5mC]*d[5mC]*dA*d[5mC]*dA*d[5mC]*dG*kA*kG*kT; antisense) [compound 800028]”, the “% Inhibition” value falls from 48% to 10%.

First: 830111 (k[5mC]*k[5mC]*k[5mC]*dA*dT*dT*d[5mC]*dA*dT*dT*dA*dA*dG*k[5mC]*k[5mC]*k[5mC]; antisense) [compound 830111]
Second: 798721 (antisense kG*k[5mC]*k[5mC]*d[5mC]*dA*dG*dG*d[5mC]*dA*dG*d[5mC]*dA*dT*k[5mC]*k[5mC]*kA) [compound 798721]
The “% Inhibition” value of the first is lower: 38% for the first, 41% for the second.

Compared with “799865 (kG*kG*kG*dA*d[5mC]*dA*dG*dA*d[5mC]*dT*dG*dT*d[5mC]*k[5mC]*k[5mC]*k[5mC]; antisense) [compound 799865]”, “799350 (kA*kT*kT*d[5mC]*d[5mC]*dT*dA*dG*d[5mC]*dG*d[5mC]*dA*d[5mC]*kT*k[5mC]*kG; antisense) [compound 799350]” is higher in “% Inhibition” value: 0% for the first, 31% for the second.

Compared with “798734 (antisense kG*k[5mC]*k[5mC]*d[5mC]*dG*d[5mC]*dG*dG*d[5mC]*dT*dG*dG*d[5mC]*kG*kG*kG) [compound 798734]”, “798756 (k[5mC]*kG*k[5mC]*d[5mC]*d[5mC]*d[5mC]*d[5mC]*dG*dG*dG*d[5mC]*d[5mC]*d[5mC]*kA*kG*k[5mC]; antisense) [compound 798756]” is higher in “% Inhibition” value: 0% for the first, 16% for the second.

Same assay, conditions: Hep3B cells, electroporation with 10,000 nM antisense oligonucleotide, approximately 24 hours, primer probe set RTS5062, relative to untreated control cells

First: 799062 (antisense k[5mC]*kT*kG*dG*dT*dT*d[5mC]*dG*dG*d[5mC]*d[5mC]*dA*d[5mC]*kT*kA*kG) [compound 799062]
Second: 799140 (antisense kT*kG*kA*d[5mC]*dG*dG*dA*d[5mC]*d[5mC]*dA*dA*dA*dT*k[5mC]*k[5mC]*kT) [compound 799140]
The “% Inhibition” value of the first is lower: 45% for the first, 60% for the second.

Going from “799177 (antisense kT*kT*kA*dT*dG*dT*dT*dA*dA*dA*dG*dT*d[5mC]*kT*kA*kA) [compound 799177]” to “799001 (antisense k[5mC]*kA*kG*d[5mC]*d[5mC]*dG*d[5mC]*dA*d[5mC]*dA*d[5mC]*dT*d[5mC]*kA*k[5mC]*kA) [compound 799001]”, the “% Inhibition” value rises from 0% to 37%.

First: 798957 (antisense kA*kT*kT*d[5mC]*dT*dT*dT*dT*d[5mC]*dA*dT*dA*dA*kG*k[5mC]*kT) [compound 798957]
Second: 799054 (antisense k[5mC]*kA*kG*dA*dA*dG*d[5mC]*d[5mC]*dT*dG*dT*dG*dG*kA*k[5mC]*kA) [compound 799054]
The “% Inhibition” value of the first is higher: 28% for the first, 15% for the second.

In the case of “798994 (antisense kA*k[5mC]*kA*d[5mC]*dA*d[5mC]*dA*d[5mC]*dT*d[5mC]*d[5mC]*dT*dG*kA*k[5mC]*kA) [compound 798994]”, the “% Inhibition” value was 0%.

Compared with “799440 (antisense kT*kA*kG*dA*dA*dA*dA*dG*dT*dT*dA*dA*dG*kA*kG*kG) [compound 799440]”, “798748 (antisense k[5mC]*kT*k[5mC]*d[5mC]*dA*d[5mC]*dG*dG*d[5mC]*d[5mC]*dT*dG*dG*kA*kG*k[5mC]) [compound 798748]” is higher in “% inhibition of SMAD7 mRNA expression” value: 41% for the first, 58% for the second.

First: 798786 (kA*k[5mC]*kT*d[5mC]*dT*dA*dG*dT*dT*d[5mC]*dG*d[5mC]*dA*kG*kA*kG; antisense) [compound 798786]
Second: 799110 (antisense kA*kG*kG*d[5mC]*dA*dG*dT*dG*d[5mC]*dT*dG*dA*dG*k[5mC]*kT*kG) [compound 799110]
The “% inhibition of SMAD7 mRNA expression” value of the first is lower: 11% for the first, 33% for the second.

Compared with “798661 (kG*kG*k[5mC]*dT*dG*d[5mC]*d[5mC]*d[5mC]*d[5mC]*dA*d[5mC]*d[5mC]*d[5mC]*k[5mC]*kG*k[5mC]; antisense) [compound 798661]”, “799346 (kT*k[5mC]*kT*d[5mC]*dA*dG*d[5mC]*d[5mC]*dG*dA*dG*dA*dA*kG*k[5mC]*k[5mC]; antisense) [compound 799346]” is lower in “% inhibition of SMAD7 mRNA expression” value: 52% for the first, 26% for the second.

Going from “799201 (antisense kT*kT*kT*dT*d[5mC]*dA*dG*dG*dA*dG*dT*d[5mC]*d[5mC]*kT*kT*kT) [compound 799201]” to “772543 (antisense kG*kG*kA*d[5mC]*dG*dA*dG*d[5mC]*dG*d[5mC]*dA*dG*dA*kT*k[5mC]*kG) [compound 772543]”, the “% inhibition of SMAD7 mRNA expression” value rises from 38% to 58%.

In the case of “798945 (antisense k[5mC]*kA*k[5mC]*dA*dA*dA*d[5mC]*dG*dA*dG*dG*dA*d[5mC]*kG*kA*kG) [compound 798945]”, the “% inhibition of SMAD7 mRNA expression” value was 19%.

Same assay, conditions: Hep3B cells, electroporation, 10,000 nM antisense oligonucleotide, approximately 24 hours, RTS5062, relative to untreated control cells

Going from “799619 (kA*k[5mC]*kG*dA*d[5mC]*d[5mC]*dA*dG*dG*d[5mC]*d[5mC]*dT*dG*kT*k[5mC]*kG; antisense) [compound 799619]” to “799675 (antisense kT*k[5mC]*k[5mC]*d[5mC]*dA*dG*dT*dT*d[5mC]*dA*dT*dG*dA*kT*k[5mC]*kA) [compound 799675]”, the “% inhibition of SMAD7 mRNA expression” value falls from 9% to 0%.

For “799302 (antisense kA*kA*kA*d[5mC]*d[5mC]*dA*d[5mC]*dA*d[5mC]*dA*dT*dT*d[5mC]*k[5mC]*kA*kA) [compound 799302]”, the “% inhibition of SMAD7 mRNA expression” value was 39%.

Same assay, conditions: SMAD7 mRNA, Hep3B cells, 10,000 nM antisense oligonucleotide, electroporation, approximately 24 hours, primer probe set RTS5062, relative to untreated control cells

Compared with “829791 (kT*kT*k[5mC]*d[5mC]*d[5mC]*dG*dT*dA*dA*dG*dA*dT*dT*k[5mC]*kA*k[5mC]; antisense) [compound 829791]”, “790747 (kG*kT*kA*d[5mC]*dA*dA*dT*d[5mC]*dT*d[5mC]*d[5mC]*dT*dG*kG*kA*kA; antisense) [compound 790747]” is lower in “% Inhibition” value: 38% for the first, 8% for the second.

For “772611 (kT*k[5mC]*k[5mC]*dG*dA*dG*dG*d[5mC]*dA*dA*dA*dA*dG*k[5mC]*k[5mC]*kA; antisense) [compound 772611]”, the “% Inhibition” value was 14%.

Same assay, conditions: SMAD7 mRNA, Hep3B cells, electroporation with 10,000 nM antisense oligonucleotide, approximately 24 hours, primer probe set RTS5062, relative to untreated control cells

Compared with “829928 (k[5mC]*kA*k[5mC]*dT*dA*d[5mC]*dA*dA*dT*dG*d[5mC]*dT*dA*kA*kA*kT; antisense) [compound 829928]”, “829911 (antisense k[5mC]*kG*kA*d[5mC]*d[5mC]*dA*dA*dA*dG*dA*dG*dT*dT*kT*kG*k[5mC]) [compound 829911]” is higher in “% Inhibition” value: 26% for the first, 52% for the second.

In the case of “830009 (antisense kG*kT*kG*dT*dT*dA*dA*dA*dG*d[5mC]*dT*dG*dA*kG*k[5mC]*k[5mC]) [compound 830009]”, the “% Inhibition” value was 52%.
